Results taken from US8193228B2, “Substituted imidazole as bombesin receptor subtype-3 modulators” (Merck Sharp & Dohme Corp., priority 2006, dated 2012).

What follows are compounds tested against T1, human BRS-3 (Homo sapiens, UniProt P32247) (assay: BRS-3 receptor binding assay (radioligand filtration)). Conditions: read-out: BRS-3 binding IC50; selected compounds.
T1 construct: expressed in transfected cells
T1 sequence (P32247 1-399): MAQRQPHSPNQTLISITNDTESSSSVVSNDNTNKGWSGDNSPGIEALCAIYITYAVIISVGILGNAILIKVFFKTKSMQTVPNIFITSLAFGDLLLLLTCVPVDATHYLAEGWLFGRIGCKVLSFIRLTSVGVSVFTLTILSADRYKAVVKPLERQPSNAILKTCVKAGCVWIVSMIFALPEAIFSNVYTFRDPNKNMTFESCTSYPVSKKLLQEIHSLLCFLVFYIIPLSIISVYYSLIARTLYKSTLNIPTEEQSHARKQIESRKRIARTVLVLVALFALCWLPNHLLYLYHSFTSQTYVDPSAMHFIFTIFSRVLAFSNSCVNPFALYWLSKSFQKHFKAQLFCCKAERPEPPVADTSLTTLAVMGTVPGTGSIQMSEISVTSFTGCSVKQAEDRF
Protocol: Dissociated cells were collected by centrifuging at 1000 rpm for 10 minutes. Cell pellets were resuspended and homogenized at 4° C. using a Polytron homogenizer (setting 40, 20 stokes) in approximately 10 mL membrane preparation buffer (10 mM Tris pH 7.4, 0.01 mM Pefabloc, 10 μM phosphoramidon and 40 μg/mL Bacitracin) per T175 flask. After centrifugation at 2200 rpm (1000×g) for 10 minutes at 4° C., the supernatant was transferred to a clean centrifuge tube and spun at 18,000 rpm (38,742×g) for 15 minutes. at 4° C.
The filters were washed five times with ice-cold washing buffer (1×PBS without Mg^++ and Ca^++). The radioactivity was determined by adding 30 μl of microscintillant/well after each plate was dried at room temperature overnight or placed at 50° C. for 1 hr.
The radioligand, [^3H]-1-{4-[(4,5-difluoro-2-hydroxycarbonylphenyl)phenyl]}-2-(4-cyclohexylmethyl-1H-imidazol-2-yl)ethane, was used for binding to receptor membranes generated with BRS3 from other species and was also utilized for the human receptor. […] After incubation for 1-2 hours at room temperature, membrane bound [^3H]-biphenyl was separated from free radiologand by filtering through GF/C filters presoaked in 1% PEI solution. The filters were washed five times with ice-cold washing buffer (50 mM Tris pH 7.4, 10 mM MgCl2, 2.5 mM EDTA and 0.02% Triton X-100). The radioactivity was determined by adding 30 μl of microscintillant/well after each plate was dried at room temperature overnight or placed at 50° C. for 1 hr.
A Packard Top Count was used to read the filter plates. The data in % inhibition of binding was plotted vs. the log molar concentration of receptor ligand (compound). The IC50 was reported as the inflection point of the resulting sigmoidal curve.
For `O[C@@](Cc1nc(CC2(C(F)(F)F)CC2)c[nH]1)(c1ccc(-n2cccn2)cc1)C(F)(F)F` [Example 31a, (2S)-1,1,1-trifluoro-2-[4-(1H-pyrazol-1-yl)phenyl]-3-(4-{[1-(trifluoromethyl)cyclopropyl]methyl}-1H-imidazol-2-yl)propan-2-ol], the IC50 was 36 nM.

Same assay, conditions: selected compounds; read-out: BRS-3 binding IC50
`CC(C)(C)Cc1c[nH]c(CC(O)(c2ccc(-c3ccc(F)cn3)cc2)C(F)F)n1` (stereo not drawn) [Example 40, 3-[4-(2,2-dimethylpropyl)-1H-imidazol-2-yl]-1,1-difluoro-2-[4-(5-fluoropyridin-2-yl)phenyl]propan-2-ol] showed an IC50 of 15 nM.
In the case of `CC(C)(C)Cc1c[nH]c(CC(O)(c2ccc(-n3cccn3)cc2)C(F)F)n1` (stereo not drawn) [Example 75, 3-[4-(2,2-dimethylpropyl)-1H-imidazol-2-yl]-1,1-difluoro-2-[4-(1H-pyrazol-1-yl)phenyl]propan-2-ol], the IC50 is reported as 11 nM.
`OC(Cc1nc(CC2(C(F)(F)F)CC2)c[nH]1)(c1ccc(-c2ccc(F)cn2)cc1)C(F)F` (stereo not drawn) [Example 45, 1,1-difluoro-2-[4-(5-fluoropyridin-2-yl)phenyl]-3-(4-{[1-(trifluoromethyl)cyclopropyl]methyl}-1H-imidazol-2-yl)propan-2-ol] was tested, and the IC50 was 71 nM.
Work on `CC(C)(C)Cc1c[nH]c(CC(C)(O)c2ccc(-c3ccc(F)cn3)cc2)n1` (stereo not drawn) [Example 4, 1-[4-(2,2-dimethylpropyl)-1H-imidazol-2-yl]-2-[4-(5-fluoropyridin-2-yl)phenyl]propan-2-ol] yielded an IC50 of 19 nM.
Compound `OC(Cc1nc(CC2(C(F)(F)F)CC2)c[nH]1)(c1ccc(-n2cccn2)cc1)C(F)F` (single isomer, unassigned) [Example 72, 1,1-difluoro-2-[4-(1H-pyrazol-1-yl)phenyl]-3-(4-{[1-(trifluoro-methyl)cyclopropyl]methyl}-1H-imidazol-2-yl)propan-2-ol] has an IC50 of 12 nM.
With `CC(C)(C)Cc1c[nH]c(CC(C)(O)c2ccc(-n3cccn3)cc2)n1` (stereo not drawn) [Example 60, 1-[4-(2,2-dimethylpropyl)-1H-imidazol-2-yl]-2-[4-(1H-pyrazol-1-yl)phenyl]propan-2-ol] the IC50 was 23 nM.
`CC(C)(C)Cc1c[nH]c(CC(O)(c2ccc(-c3ccc(F)cn3)cc2)C(F)(F)F)n1` (stereo not drawn) [Example 1, 3-[4-(2,2-dimethylpropyl)-1H-imidazol-2-yl]-1,1,1-trifluoro-2-[4-(5-fluoropyridin-2-yl)phenyl]propan-2-ol] gave an IC50 of 18 nM.
`CC(C)(C)Cc1c[nH]c(CC(O)(c2ccc(-n3cccn3)cc2)C(F)(F)F)n1` (stereo not drawn) [Example 78, 3-[4-(2,2-dimethylpropyl)-1H-imidazol-2-yl]-1,1,1-trifluoro-2-[4-(1H-pyrazol-1-yl)phenyl]propan-2-ol] was tested, and the IC50 was 17 nM.
In the case of `CC(O)(Cc1nc(CC2(C(F)(F)F)CC2)c[nH]1)c1ccc(-n2cccn2)cc1` (stereo not drawn) [Example 52, 2-[4-(1H-pyrazol-1-yl)phenyl]-1-(4-{[1-(trifluoromethyl)cyclopropyl]methyl}-1H-imidazol-2-yl)propan-2-ol], the IC50 is reported as 19 nM.
`OC(Cc1nc(CC2(C(F)(F)F)CC2)c[nH]1)(c1ccc(-c2ccc(F)cn2)cc1)C(F)(F)F` (single isomer, unassigned) [Example 55, 1,1,1-trifluoro-2-[4-(5-fluoropyridin-2-yl)phenyl]-3-(4-{[1-(trifluoromethyl)cyclopropyl]methyl}-1H-imidazol-2-yl)propan-2-ol] gave an IC50 of 56 nM.
`CC(O)(Cc1nc(CC2(C(F)(F)F)CC2)c[nH]1)c1ccc(-c2ccc(F)cn2)cc1` (stereo not drawn) [Example 49, 2-[4-(5-fluoropyridin-2-yl)phenyl]-1-(4-{[1-(trifluoromethyl)cyclopropyl]methyl}-1H-imidazol-2-yl)propan-2-ol] showed an IC50 of 54 nM.
